Reference: patent publication US20260217735A1, “HETEROCYCLES AND USES THEREOF” (Kumquat Biosciences Inc., priority 2023, published 2026)
pIC50: −log10 of the molar value.

Assays:
KRAS G12V = biological target: T1, KRAS G12V (Homo sapiens, UniProt P01116, G12V); experiment: HTRF assay, KRAS G12V interaction with SOS1; assay type: biochemical; conditions: bins <500 nM / 500 nM to 1000 nM, read-out: Inhibition of KRAS G12V (IC50)
T1 construct: made in house; host or cells: E. coli, e.g. BL21 (DE3)
T1 sequence (P01116 1-188 isoform P01116-2 G12V): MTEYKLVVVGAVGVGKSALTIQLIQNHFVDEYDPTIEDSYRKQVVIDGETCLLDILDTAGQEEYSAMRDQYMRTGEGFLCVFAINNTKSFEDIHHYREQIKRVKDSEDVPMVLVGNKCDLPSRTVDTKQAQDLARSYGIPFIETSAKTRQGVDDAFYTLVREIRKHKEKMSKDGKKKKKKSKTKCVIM

MiaPaca2 cells = experiment: Ras cellular assay, growth of cells with K-Ras G12C mutation; assay type: cell-based; conditions: Homo sapiens, MIA PaCa-2; cell proliferation assay; bins ≤500 nM / >500 nM; read-out: Inhibition of MiaPaca2 Cells (IC50)
In short: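 MIA PaCa-2 cells (K-Ras G12C, about 125-150 cells/well) grown in 0.25% soft agar over a 0.6% agar base, compound added on day 2 at 0.3% final DMSO. Growth read on day 10 by Cell Titer 96 AQueous absorbance (490 nm, reference 660 nm) against time-zero wells; IC50 from four-parameter fit.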

KRAS G12S = biological target: T2, KRAS G12S (Homo sapiens, UniProt P01116, G12S); experiment: HTRF assay, KRAS G12S interaction with SOS1; assay type: biochemical; conditions: bins <500 nM / 500 nM to 1000 nM, read-out: Inhibition of KRAS G12S (IC50)
T2 construct: made in house; host or cells: E. coli, e.g. BL21 (DE3)
T2 sequence (P01116 1-188 isoform P01116-2 G12S): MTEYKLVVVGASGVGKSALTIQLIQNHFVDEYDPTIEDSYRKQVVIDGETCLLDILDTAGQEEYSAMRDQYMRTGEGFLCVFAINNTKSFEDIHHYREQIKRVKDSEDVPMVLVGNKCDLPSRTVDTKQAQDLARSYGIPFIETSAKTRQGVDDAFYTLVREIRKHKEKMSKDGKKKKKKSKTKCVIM

KRAS WT = biological target: T3, KRAS WT (Homo sapiens, UniProt P01116); experiment: HTRF assay, wildtype KRAS interaction with SOS1; assay type: biochemical; conditions: bins <500 nM / 500 nM to 1000 nM, read-out: Inhibition of KRAS WT (IC50)
T3 construct: made in house; host or cells: E. coli, e.g. BL21 (DE3)
T3 sequence (P01116 1-188 isoform P01116-2): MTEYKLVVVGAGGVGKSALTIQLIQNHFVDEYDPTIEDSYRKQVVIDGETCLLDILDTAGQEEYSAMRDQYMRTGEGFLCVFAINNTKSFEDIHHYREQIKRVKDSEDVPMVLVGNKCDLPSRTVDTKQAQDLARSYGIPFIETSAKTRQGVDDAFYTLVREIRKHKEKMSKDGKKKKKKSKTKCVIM

KRAS G12D = biological target: T4, KRAS G12D (Homo sapiens, UniProt P01116, G12D); experiment: HTRF assay, KRAS G12D interaction with SOS1; assay type: biochemical; conditions: bins <500 nM / 500 nM to 1000 nM, read-out: Inhibition of KRAS G12D (IC50)
T4 construct: made in house; host or cells: E. coli, e.g. BL21 (DE3)
T4 sequence (P01116 1-188 isoform P01116-2 G12D): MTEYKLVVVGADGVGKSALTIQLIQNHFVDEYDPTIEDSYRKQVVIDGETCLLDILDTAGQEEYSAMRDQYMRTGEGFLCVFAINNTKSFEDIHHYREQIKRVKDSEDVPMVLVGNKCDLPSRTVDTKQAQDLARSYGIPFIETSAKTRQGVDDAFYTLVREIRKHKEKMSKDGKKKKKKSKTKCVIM

pIC50 (KRAS G12V) | pIC50 (MiaPaca2 cells) | pIC50 (KRAS G12S) | pIC50 (KRAS WT) | pIC50 (KRAS G12D) | Structure (SMILES)
> 6.30 | ≥ 6.30 | > 6.30 | > 6.30 | > 6.30 | C[C@@H]1[C@H](N(C)c2nc(OC[C@@]34CCCN3C[C@H](F)C4)nc3c(F)c(-c4ccc(F)c5sc(N)c(C#N)c45)c(Cl)cc23)CCN1C(=O)n1cnc(C2CC2)c1 [Compound 135, 2-amino-4-(6-chloro-4-(((2R,3R)-1-(4-cyclopropyl-1H-imidazole-1-carbonyl)-2-methylpyrrolidin-3-yl)(methyl)amino)-8-fluoro-2-(((2R,7aS)-2-fluorotetrahydro-1H-pyrrolizin-7a(5H)-yl)methoxy)quinazolin-7-yl)-7-fluorobenzo[b]thiophene-3-carbonitrile]
> 6.30 | ≥ 6.30 | > 6.30 | > 6.30 | > 6.30 | CCN(c1nc(OC[C@@]23CCCN2C[C@H](F)C3)nc2c(F)c(-c3ccc(F)c4sc(N)c(C#N)c34)c(Cl)cc12)[C@@H]1CCN(C(=O)n2ccc(C#N)n2)[C@@H]1C [Compound 136, 1-((2R,3R)-3-((7-(2-amino-3-cyano-7-fluorobenzo[b]thiophen-4-yl)-6-chloro-8-fluoro-2-(((2R,7aS)-2-fluorotetrahydro-1H-pyrrolizin-7a(5H)-yl)methoxy)quinazolin-4-yl)(ethyl)amino)-2-methylpyrrolidine-1-carbonyl)-1H-pyrazole-3-carbonitrile]
> 6.30 | ≥ 6.30 | > 6.30 | > 6.30 | > 6.30 | CCN(c1nc(OC[C@@]23CCCN2C[C@H](F)C3)nc2c(F)c(-c3ccc(F)c4sc(N)c(C#N)c34)c(Cl)cc12)[C@@H]1CCN(C(=O)n2cc(C)nc2Cl)[C@@H]1C [Compound 137, 2-amino-4-(6-chloro-4-(((2R,3R)-1-(2-chloro-4-methyl-1H-imidazole-1-carbonyl)-2-methylpyrrolidin-3-yl)(ethyl)amino)-8-fluoro-2-(((2R,7aS)-2-fluorotetrahydro-1H-pyrrolizin-7a(5H)-yl)methoxy)quinazolin-7-yl)-7-fluorobenzo[b]thiophene-3-carbonitrile]
> 6.30 | ≥ 6.30 | > 6.30 | > 6.30 | > 6.30 | Cc1cn(C(=O)N2CC3(CCCCN(c4nc(OC[C@@]56CCCN5C[C@H](F)C6)nc5c(F)c(-c6ccc(F)c7sc(N)c(C#N)c67)c(Cl)cc45)C3)C2)c(C)n1 [Compound 138, 2-amino-4-(6-chloro-4-(2-(2,4-dimethyl-1H-imidazole-1-carbonyl)-2,6-diazaspiro[3.6]decan-6-yl)-8-fluoro-2-(((2R,7aS)-2-fluorotetrahydro-1H-pyrrolizin-7a(5H)-yl)methoxy)quinazolin-7-yl)-7-fluorobenzo[b]thiophene-3-carbonitrile]
> 6.30 | ≥ 6.30 | > 6.30 | > 6.30 | > 6.30 | CCN(c1nc(OC[C@@]23CCCN2C[C@H](F)C3)nc2c(F)c(-c3ccc(F)c4sc(N)c(C#N)c34)c(C(F)(F)F)cc12)[C@@H]1CCN(C(=O)n2cnc(C#N)c2C)[C@@H]1C [Compound 139, 1-((2R,3R)-3-((7-(2-amino-3-cyano-7-fluorobenzo[b]thiophen-4-yl)-8-fluoro-2-(((2R,7aS)-2-fluorotetrahydro-1H-pyrrolizin-7a(5H)-yl)methoxy)-6-(trifluoromethyl)quinazolin-4-yl)(ethyl)amino)-2-methylpyrrolidine-1-carbonyl)-5-methyl-1H-imidazole-4-carbonitrile]
> 6.30 | ≥ 6.30 | > 6.30 | > 6.30 | > 6.30 | Cc1ncn(C(=O)N2CC3CCN(c4nc(OC[C@@]56CCCN5C[C@H](F)C6)nc5c(F)c(-c6ccc(F)c7sc(N)c(C#N)c67)c(Cl)cc45)C3C2)c1C (stereo partly drawn) [Compound 140, 2-amino-4-(6-chloro-4-(5-(4,5-dimethyl-1H-imidazole-1-carbonyl)hexahydropyrrolo[3,4-b]pyrrol-1(2H)-yl)-8-fluoro-2-(((2R,7aS)-2-fluorotetrahydro-1H-pyrrolizin-7a(5H)-yl)methoxy)quinazolin-7-yl)-7-fluorobenzo[b]thiophene-3-carbonitrile]
> 6.30 | ≥ 6.30 | > 6.30 | > 6.30 | > 6.30 | Cc1c(C#N)ncn1C(=O)N1CC[C@@H](N(C)c2nc(OC[C@@]34CCCN3C[C@H](F)C4)nc3c(F)c(-c4ccc(F)c5sc(N)c(C#N)c45)c(Cl)cc23)[C@H]1C [Compound 141, 1-((2R,3R)-3-((7-(2-amino-3-cyano-7-fluorobenzo[b]thiophen-4-yl)-6-chloro-8-fluoro-2-(((2R,7aS)-2-fluorotetrahydro-1H-pyrrolizin-7a(5H)-yl)methoxy)quinazolin-4-yl)(methyl)amino)-2-methylpyrrolidine-1-carbonyl)-5-methyl-1H-imidazole-4-carbonitrile]
> 6.30 | ≥ 6.30 | > 6.30 | > 6.30 | > 6.30 | Cc1cn(C(=O)N2CC[C@@H](N(C)c3nc(OC[C@@]45CCCN4C[C@H](F)C5)nc4c(F)c(-c5ccc(F)c6sc(N)c(C#N)c56)c(Cl)cc34)[C@H]2C)cn1 [Compound 144, 2-amino-4-(6-chloro-8-fluoro-2-(((2R,7aS)-2-fluorotetrahydro-1H-pyrrolizin-7a(5H)-yl)methoxy)-4-(methyl((2R,3R)-2-methyl-1-(4-methyl-1H-imidazole-1-carbonyl)pyrrolidin-3-yl)amino)quinazolin-7-yl)-7-fluorobenzo[b]thiophene-3-carbonitrile]
> 6.30 | ≥ 6.30 | > 6.30 | > 6.30 | > 6.30 | CCN(c1nc(OC[C@@]23CCCN2C[C@H](F)C3)nc2c(F)c(-c3ccc(F)c4sc(N)c(C#N)c34)c(Cl)cc12)[C@@H]1CCN(C(=O)n2cnc(C)c2C)[C@@H]1C [Compound 145, 2-amino-4-(6-chloro-4-(((2R,3R)-1-(4,5-dimethyl-1H-imidazole-1-carbonyl)-2-methylpyrrolidin-3-yl)(ethyl)amino)-8-fluoro-2-(((2R,7aS)-2-fluorotetrahydro-1H-pyrrolizin-7a(5H)-yl)methoxy)quinazolin-7-yl)-7-fluorobenzo[b]thiophene-3-carbonitrile]
> 6.30 | ≥ 6.30 | > 6.30 | > 6.30 | > 6.30 | Cc1ncn(C(=O)N2CC[C@@]23CCN(c2nc(OC[C@@]45CCCN4C[C@H](F)C5)nc4c(F)c(-c5ccc(F)c6sc(N)c(C#N)c56)c(Cl)cc24)C3)c1C [Compound 147, 2-amino-4-(6-chloro-4-((R)-1-(4,5-dimethyl-1H-imidazole-1-carbonyl)-1,6-diazaspiro[3.4]octan-6-yl)-8-fluoro-2-(((2R,7aS)-2-fluorotetrahydro-1H-pyrrolizin-7a(5H)-yl)methoxy)quinazolin-7-yl)-7-fluorobenzo[b]thiophene-3-carbonitrile]
> 6.30 | ≥ 6.30 | > 6.30 | > 6.30 | > 6.30 | CCN(c1nc(OC[C@@]23CCCN2C[C@H](F)C3)nc2c(F)c(-c3ccc(F)c4sc(N)c(C#N)c34)c(C(F)(F)F)cc12)[C@@H]1CCN(C(=O)n2ccnc2C)[C@@H]1C [Compound 148, 2-amino-4-(4-(ethyl((2R,3R)-2-methyl-1-(2-methyl-1H-imidazole-1-carbonyl)pyrrolidin-3-yl)amino)-8-fluoro-2-(((2R,7aS)-2-fluorotetrahydro-1H-pyrrolizin-7a(5H)-yl)methoxy)-6-(trifluoromethyl)quinazolin-7-yl)-7-fluorobenzo[b]thiophene-3-carbonitrile]
> 6.30 | ≥ 6.30 | > 6.30 | > 6.30 | > 6.30 | CCN(c1nc(OC[C@@]23CCCN2C[C@H](F)C3)nc2c(F)c(-c3ccc(F)c4sc(N)c(C#N)c34)c(Cl)cc12)[C@@H]1CCN(C(=O)n2cnc(C#N)c2C)[C@@H]1C [Compound 149, 1-((2R,3R)-3-((7-(2-amino-3-cyano-7-fluorobenzo[b]thiophen-4-yl)-6-chloro-8-fluoro-2-(((2R,7aS)-2-fluorotetrahydro-1H-pyrrolizin-7a(5H)-yl)methoxy)quinazolin-4-yl)(ethyl)amino)-2-methylpyrrolidine-1-carbonyl)-5-methyl-1H-imidazole-4-carbonitrile]
> 6.30 | ≥ 6.30 | > 6.30 | > 6.30 | > 6.30 | Cc1cn(C(=O)N(C)C2CN(c3nc(OC[C@@]45CCCN4C[C@H](F)C5)nc4c(F)c(-c5ccc(F)c6sc(N)c(C#N)c56)c(Cl)cc34)CC2F)cn1 (stereo partly drawn) [Compound 151, N-(1-((R)-7-(2-amino-3-cyano-7-fluorobenzo[b]thiophen-4-yl)-6-chloro-8-fluoro-2-(((2R,7aS)-2-fluorotetrahydro-1H-pyrrolizin-7a(5H)-yl)methoxy)quinazolin-4-yl)-4-fluoropyrrolidin-3-yl)-N,4-dimethyl-1H-imidazole-1-carboxamide]
